Type in all cases: functional, cell-based
For experiment [1], the system named is Jurkat. Put plainly: Induction of cell cycle arrest in human Jurkat cells assessed as accumulation at G2/M phase after 48 hrs.
Experiment [2] relates to Jurkat. The experiment is described as follows: Induction of apoptosis in human Jurkat cells assessed as hypodiploidic cells after 72 hrs.
Experiment [3] has as its system Jurkat. Put plainly: Induction of DNA fragmentation at G2/M phase in human Jurkat cells after 72 hrs by propidium iodide and FITC-dUTP double staining.
Experiment [4] has as its system Jurkat. Put plainly: Induction of cell cycle arrest in human Jurkat cells assessed as accumulation at G2/M phase at 25 ug/mL after 48 hrs.
Experiment [5] relates to Jurkat. Put plainly: Induction of DNA fragmentation at G1/S phase in human Jurkat cells after 72 hrs by propidium iodide and FITC-dUTP double staining.

SMILES strings stand for the structures. Activity calls are given as the source filed them. No cut-off for these calls is given here.

For `CC1(C)O[C@@H]1COc1c2occc2cc2ccc(=O)oc12`, the outcome in the experiment with Jurkat [1], in the experiment with Jurkat [2] and in the experiment with Jurkat [3] was Active.
As for `CC(C)=CCOc1c2occc2cc2ccc(=O)oc12`, the result in the experiment on Jurkat [1] and in the experiment with Jurkat [4] was inactive. For the same compound, in the experiment on Jurkat [5], the outcome was Active.
